Test results published in ChEMBL document CHEMBL4507268 (2021).

Assays:
[1] = molecular target: T1, Serine/threonine-protein kinase STK11 (Homo sapiens) (UniProt Q15831); conditions: Compound concentration 1000.0 nM
T1 sequence (whole entry): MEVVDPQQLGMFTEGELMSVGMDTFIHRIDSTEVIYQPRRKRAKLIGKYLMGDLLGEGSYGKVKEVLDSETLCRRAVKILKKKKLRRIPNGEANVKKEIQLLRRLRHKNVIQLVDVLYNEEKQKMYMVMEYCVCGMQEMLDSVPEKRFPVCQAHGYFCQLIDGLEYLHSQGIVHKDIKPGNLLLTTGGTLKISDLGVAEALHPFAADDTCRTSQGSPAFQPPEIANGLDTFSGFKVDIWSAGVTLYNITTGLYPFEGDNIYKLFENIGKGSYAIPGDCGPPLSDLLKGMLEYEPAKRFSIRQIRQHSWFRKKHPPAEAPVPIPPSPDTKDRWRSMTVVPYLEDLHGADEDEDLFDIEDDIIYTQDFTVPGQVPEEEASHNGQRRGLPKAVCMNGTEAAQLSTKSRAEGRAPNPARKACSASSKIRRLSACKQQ

[2] = molecular target: MAP kinase-interacting serine/threonine-protein kinase 1 (Homo sapiens) (UniProt Q9BUB5); conditions: Compound concentration 1000.0 nM
[3] = molecular target: Alpha-2B adrenergic receptor (Homo sapiens) (UniProt P18089); conditions: Compound concentration 10.0 uM
[4] = molecular target: CDK4/Cyclin D3 (Homo sapiens) (UniProt P11802+P30281); conditions: Compound concentration 1.0 uM
Homo sapiens = species on record: Homo sapiens; conditions: Compound concentration 1.0 uM
[5] = molecular target: Dual specificity protein kinase CLK3 (Homo sapiens) (UniProt P49761); conditions: Compound concentration 1.0 uM
[6] = molecular target: Tyrosine-protein kinase CSK (Homo sapiens) (UniProt P41240); conditions: Compound concentration 1.0 uM
[7] = molecular target: Fibroblast growth factor receptor 1 (Homo sapiens) (UniProt P11362); conditions: Compound concentration 1.0 uM
[8] = molecular target: Fibroblast growth factor receptor 4 (Homo sapiens) (UniProt P22455); conditions: Compound concentration 1.0 uM
[9] = molecular target: T2, Homeodomain-interacting protein kinase 4 (Homo sapiens) (UniProt Q8NE63); conditions: Compound concentration 1.0 uM
T2 sequence (whole entry): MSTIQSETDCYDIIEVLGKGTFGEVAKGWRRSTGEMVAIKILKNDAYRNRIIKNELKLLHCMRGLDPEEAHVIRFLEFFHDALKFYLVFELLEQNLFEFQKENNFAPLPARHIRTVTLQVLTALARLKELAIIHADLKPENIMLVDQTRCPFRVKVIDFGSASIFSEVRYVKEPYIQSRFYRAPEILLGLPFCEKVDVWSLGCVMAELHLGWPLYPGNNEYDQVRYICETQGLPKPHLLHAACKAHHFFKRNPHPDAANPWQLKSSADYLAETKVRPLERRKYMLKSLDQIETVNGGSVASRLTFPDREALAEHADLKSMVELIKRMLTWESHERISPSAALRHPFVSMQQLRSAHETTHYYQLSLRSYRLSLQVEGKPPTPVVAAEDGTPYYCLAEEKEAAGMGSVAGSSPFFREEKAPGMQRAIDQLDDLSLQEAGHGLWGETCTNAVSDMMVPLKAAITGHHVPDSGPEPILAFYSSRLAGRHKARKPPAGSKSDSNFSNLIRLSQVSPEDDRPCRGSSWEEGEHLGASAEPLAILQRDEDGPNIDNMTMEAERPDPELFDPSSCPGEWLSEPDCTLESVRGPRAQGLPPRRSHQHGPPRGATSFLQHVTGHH

[10] = molecular target: mTOR/FKBP12A/FKBP12B (Homo sapiens) (UniProt P62942+P68106+P42345); conditions: Compound concentration 1.0 uM
[11] = molecular target: Platelet-derived growth factor receptor alpha (Homo sapiens) (UniProt P16234); conditions: Compound concentration 1.0 uM
[12] = molecular target: Serine/threonine-protein kinase PLK1 (Homo sapiens) (UniProt P53350); conditions: Compound concentration 1.0 uM
[13] = molecular target: Ribosomal protein S6 kinase alpha-1 (Homo sapiens) (UniProt Q15418); conditions: Compound concentration 1.0 uM
[14] = molecular target: Ribosomal protein S6 kinase alpha-2 (Homo sapiens) (UniProt Q15349); conditions: Compound concentration 1.0 uM
[15] = molecular target: Tyrosine-protein kinase Srms (Homo sapiens) (UniProt Q9H3Y6); conditions: Compound concentration 1.0 uM
[16] = molecular target: SRSF protein kinase 1 (Homo sapiens) (UniProt Q96SB4); conditions: Compound concentration 1.0 uM
[17] = molecular target: T3, Serine/threonine-protein kinase tousled-like 1 (Homo sapiens) (UniProt Q9UKI8); conditions: Compound concentration 1.0 uM
T3 sequence (whole entry): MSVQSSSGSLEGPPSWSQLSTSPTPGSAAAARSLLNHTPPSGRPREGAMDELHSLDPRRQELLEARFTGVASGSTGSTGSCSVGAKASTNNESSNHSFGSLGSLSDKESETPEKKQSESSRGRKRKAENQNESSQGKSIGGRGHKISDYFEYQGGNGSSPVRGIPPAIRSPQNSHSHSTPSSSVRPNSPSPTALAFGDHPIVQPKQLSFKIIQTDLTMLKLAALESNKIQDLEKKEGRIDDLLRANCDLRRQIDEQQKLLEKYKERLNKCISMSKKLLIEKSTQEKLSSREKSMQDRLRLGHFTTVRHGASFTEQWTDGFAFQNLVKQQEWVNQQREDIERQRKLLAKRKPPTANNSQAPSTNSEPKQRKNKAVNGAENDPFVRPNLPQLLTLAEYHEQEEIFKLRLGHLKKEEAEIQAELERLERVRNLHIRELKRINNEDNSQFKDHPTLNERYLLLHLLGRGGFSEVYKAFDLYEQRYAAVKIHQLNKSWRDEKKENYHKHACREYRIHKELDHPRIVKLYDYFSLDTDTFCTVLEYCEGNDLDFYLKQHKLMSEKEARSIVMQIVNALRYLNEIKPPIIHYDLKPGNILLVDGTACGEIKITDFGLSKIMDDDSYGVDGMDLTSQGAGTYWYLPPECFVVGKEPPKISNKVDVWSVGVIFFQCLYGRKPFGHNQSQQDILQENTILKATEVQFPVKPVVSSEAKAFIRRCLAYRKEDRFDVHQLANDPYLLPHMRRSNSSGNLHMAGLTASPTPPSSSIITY

[18] = molecular target: DNA-dependent protein kinase catalytic subunit (Homo sapiens) (UniProt P78527); conditions: Compound concentration 1.0 uM

Sequence of MAP kinase-interacting serine/threonine-protein kinase 1 (Homo sapiens) (Q9BUB5 whole entry, looked up): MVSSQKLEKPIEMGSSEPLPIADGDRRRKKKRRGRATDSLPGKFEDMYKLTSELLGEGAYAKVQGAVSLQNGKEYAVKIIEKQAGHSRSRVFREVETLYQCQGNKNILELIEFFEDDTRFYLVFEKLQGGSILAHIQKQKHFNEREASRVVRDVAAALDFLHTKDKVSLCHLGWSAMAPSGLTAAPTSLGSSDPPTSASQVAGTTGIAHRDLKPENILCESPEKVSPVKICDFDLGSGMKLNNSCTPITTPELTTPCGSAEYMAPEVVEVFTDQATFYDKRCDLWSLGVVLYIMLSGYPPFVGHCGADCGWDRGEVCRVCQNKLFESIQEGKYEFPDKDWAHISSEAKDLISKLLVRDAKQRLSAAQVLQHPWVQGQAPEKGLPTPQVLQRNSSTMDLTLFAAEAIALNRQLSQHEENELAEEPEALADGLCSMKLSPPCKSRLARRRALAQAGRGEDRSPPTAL
Sequence of Serine/threonine-protein kinase PLK1 (Homo sapiens) (P53350 whole entry): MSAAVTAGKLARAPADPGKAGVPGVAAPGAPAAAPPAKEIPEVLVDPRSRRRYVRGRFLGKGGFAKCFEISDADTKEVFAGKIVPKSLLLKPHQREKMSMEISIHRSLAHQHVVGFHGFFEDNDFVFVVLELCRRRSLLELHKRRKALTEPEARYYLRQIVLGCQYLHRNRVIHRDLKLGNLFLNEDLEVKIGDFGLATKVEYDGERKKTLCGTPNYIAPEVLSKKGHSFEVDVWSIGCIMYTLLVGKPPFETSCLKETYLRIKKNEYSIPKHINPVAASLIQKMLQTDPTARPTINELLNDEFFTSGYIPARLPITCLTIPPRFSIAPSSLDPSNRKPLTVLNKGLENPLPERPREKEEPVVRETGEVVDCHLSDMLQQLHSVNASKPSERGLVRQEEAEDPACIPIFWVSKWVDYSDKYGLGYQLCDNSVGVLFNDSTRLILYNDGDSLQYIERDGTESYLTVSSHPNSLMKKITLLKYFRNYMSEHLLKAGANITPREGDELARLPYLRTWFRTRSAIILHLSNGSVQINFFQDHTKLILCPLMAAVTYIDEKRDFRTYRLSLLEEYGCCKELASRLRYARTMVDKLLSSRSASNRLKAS
Sequence of Ribosomal protein S6 kinase alpha-2 (Homo sapiens) (Q15349 whole entry): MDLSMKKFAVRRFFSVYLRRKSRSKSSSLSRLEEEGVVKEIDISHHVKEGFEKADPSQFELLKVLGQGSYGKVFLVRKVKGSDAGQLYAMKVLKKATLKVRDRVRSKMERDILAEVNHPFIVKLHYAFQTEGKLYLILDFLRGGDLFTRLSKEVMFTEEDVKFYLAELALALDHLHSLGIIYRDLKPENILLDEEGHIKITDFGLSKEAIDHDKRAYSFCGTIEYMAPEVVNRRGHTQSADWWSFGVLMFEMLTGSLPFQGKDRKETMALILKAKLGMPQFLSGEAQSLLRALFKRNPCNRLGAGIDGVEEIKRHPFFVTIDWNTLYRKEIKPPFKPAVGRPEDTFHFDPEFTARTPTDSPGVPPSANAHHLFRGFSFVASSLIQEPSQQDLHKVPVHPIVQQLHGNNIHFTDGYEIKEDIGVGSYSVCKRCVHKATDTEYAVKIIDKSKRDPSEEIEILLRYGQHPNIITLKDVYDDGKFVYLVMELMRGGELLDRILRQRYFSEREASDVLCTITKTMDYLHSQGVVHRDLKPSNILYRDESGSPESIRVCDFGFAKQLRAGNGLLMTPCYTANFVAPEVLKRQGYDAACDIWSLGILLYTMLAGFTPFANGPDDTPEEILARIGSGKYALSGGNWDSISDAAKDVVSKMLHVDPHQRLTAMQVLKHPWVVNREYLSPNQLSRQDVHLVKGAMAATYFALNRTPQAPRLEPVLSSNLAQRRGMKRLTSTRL
Sequence of Alpha-2B adrenergic receptor (Homo sapiens) (P18089 whole entry): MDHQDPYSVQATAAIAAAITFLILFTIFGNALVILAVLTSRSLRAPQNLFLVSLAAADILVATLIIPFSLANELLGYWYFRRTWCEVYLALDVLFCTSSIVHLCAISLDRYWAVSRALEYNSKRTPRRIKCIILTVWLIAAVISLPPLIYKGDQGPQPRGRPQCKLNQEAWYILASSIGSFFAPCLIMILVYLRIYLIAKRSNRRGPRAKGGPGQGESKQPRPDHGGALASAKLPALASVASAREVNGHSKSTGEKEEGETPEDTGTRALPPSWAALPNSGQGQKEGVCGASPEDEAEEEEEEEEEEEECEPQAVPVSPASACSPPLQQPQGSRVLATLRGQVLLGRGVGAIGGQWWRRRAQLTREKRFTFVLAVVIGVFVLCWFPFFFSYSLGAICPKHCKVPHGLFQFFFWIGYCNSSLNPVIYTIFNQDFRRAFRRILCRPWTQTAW
Sequence of Dual specificity protein kinase CLK3 (Homo sapiens) (P49761 whole entry, looked up): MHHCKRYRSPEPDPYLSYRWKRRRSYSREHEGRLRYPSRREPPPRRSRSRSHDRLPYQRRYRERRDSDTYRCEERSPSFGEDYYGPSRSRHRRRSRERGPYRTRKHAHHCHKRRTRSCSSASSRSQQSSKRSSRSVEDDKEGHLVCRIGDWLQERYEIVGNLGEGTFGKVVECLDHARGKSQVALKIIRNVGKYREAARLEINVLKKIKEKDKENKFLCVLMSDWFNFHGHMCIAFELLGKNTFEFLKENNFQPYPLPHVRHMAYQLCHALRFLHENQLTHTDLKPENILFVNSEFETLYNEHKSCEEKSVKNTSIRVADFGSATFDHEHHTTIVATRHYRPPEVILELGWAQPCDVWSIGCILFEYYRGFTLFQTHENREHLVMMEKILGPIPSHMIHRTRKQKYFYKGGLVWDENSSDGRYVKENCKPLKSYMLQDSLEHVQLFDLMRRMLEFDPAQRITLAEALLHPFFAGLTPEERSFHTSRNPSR
Sequence of Platelet-derived growth factor receptor alpha (Homo sapiens) (P16234 whole entry): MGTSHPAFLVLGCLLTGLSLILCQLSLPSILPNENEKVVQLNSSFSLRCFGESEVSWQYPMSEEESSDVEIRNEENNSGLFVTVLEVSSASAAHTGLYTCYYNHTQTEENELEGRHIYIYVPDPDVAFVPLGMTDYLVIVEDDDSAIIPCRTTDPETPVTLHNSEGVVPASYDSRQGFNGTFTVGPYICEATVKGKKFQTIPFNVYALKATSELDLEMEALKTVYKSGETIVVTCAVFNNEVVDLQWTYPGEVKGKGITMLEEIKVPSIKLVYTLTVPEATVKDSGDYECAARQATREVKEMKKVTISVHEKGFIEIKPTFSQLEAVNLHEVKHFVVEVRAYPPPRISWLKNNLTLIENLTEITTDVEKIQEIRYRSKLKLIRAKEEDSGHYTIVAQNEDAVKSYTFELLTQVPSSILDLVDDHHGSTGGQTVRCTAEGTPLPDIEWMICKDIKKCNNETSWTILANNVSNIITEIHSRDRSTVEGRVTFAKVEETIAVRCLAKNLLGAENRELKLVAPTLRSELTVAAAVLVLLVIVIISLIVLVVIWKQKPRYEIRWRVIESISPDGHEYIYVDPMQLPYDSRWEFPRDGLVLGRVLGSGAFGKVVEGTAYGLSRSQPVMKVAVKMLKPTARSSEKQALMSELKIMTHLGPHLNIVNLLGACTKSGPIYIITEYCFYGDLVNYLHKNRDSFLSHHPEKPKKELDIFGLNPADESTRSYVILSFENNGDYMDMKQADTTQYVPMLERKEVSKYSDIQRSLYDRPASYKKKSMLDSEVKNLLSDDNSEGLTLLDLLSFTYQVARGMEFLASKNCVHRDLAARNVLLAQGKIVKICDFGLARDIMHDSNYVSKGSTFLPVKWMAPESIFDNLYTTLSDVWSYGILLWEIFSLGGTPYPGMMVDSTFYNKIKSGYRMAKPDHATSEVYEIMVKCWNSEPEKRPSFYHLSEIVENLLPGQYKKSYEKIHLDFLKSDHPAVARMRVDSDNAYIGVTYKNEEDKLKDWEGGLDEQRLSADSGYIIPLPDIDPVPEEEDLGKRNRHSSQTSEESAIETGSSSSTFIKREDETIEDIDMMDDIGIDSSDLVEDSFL
Sequence of mTOR/FKBP12A/FKBP12B (Homo sapiens) (P62942 2-108 limits assumed, other chains not shown): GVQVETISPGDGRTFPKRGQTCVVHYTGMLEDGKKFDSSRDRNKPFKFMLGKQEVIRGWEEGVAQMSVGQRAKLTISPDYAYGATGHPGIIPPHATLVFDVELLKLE
Sequence of mTOR/FKBP12A/FKBP12B (Homo sapiens) (P68106 whole entry partner, other chains not shown): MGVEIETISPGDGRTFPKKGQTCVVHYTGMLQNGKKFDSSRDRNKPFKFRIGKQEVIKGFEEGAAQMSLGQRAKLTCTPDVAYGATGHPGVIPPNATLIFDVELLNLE
Sequence of SRSF protein kinase 1 (Homo sapiens) (Q96SB4 whole entry): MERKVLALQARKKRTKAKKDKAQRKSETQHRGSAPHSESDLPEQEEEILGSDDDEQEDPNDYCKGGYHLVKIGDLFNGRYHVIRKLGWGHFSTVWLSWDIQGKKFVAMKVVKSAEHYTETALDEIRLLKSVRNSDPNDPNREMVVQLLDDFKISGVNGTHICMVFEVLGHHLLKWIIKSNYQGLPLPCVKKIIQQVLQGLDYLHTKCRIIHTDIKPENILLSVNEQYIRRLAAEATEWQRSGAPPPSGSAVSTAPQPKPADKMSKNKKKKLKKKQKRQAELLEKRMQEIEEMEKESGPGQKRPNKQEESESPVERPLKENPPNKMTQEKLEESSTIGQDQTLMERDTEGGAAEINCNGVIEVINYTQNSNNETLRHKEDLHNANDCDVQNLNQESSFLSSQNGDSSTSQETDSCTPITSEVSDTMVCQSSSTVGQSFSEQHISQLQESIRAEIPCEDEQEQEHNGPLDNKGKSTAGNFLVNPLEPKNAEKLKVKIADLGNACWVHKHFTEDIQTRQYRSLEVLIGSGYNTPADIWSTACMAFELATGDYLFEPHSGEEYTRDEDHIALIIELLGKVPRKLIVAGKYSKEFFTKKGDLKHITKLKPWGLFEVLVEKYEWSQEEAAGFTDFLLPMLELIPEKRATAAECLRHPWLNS

Cc1nc(C2CCN(C(=O)c3ccc(OC(F)(F)F)cc3N)CC2)c2ncc(N3CCN(C)CC3)cc2n1 [BAY-693]
inactive: residual activity [1] 100% | residual activity [2] 100%

CN1CCN(c2cnc3c(C4CCN(C(=O)c5ccc(OC(F)(F)F)cc5N)CC4)ncnc3c2)CC1 [BAY-885]
inactive: residual activity [1] 100% | residual activity [2] 100% | inhibition [3] -8.47% | % residual kinase activity [4] 106% | % residual kinase activity (Homo sapiens) 107% | % residual kinase activity [5] 111% | % residual kinase activity [6] 102% | % residual kinase activity [7] 101% | % residual kinase activity [8] 96% | % residual kinase activity [9] 94% | % residual kinase activity [10] 101% | % residual kinase activity [11] 105% | % residual kinase activity [12] 115% | % residual kinase activity [13] 121% | % residual kinase activity [14] 98% | % residual kinase activity [15] 81% | % residual kinase activity [16] 114% | % residual kinase activity [17] 106% | % residual kinase activity [18] 102%
